{"source": "the Deep4Chem optical property database", "assay": "solvent given as SMILES", "data": [{"smiles": "N#Cc1ccc(/C=C2\\OC(=O)c3cc(N)ccc32)cc1", "values": [{"measurement": "emission maximum", "setting": "in CC#N", "result": 485.44, "unit": "nm"}, {"measurement": "emission maximum", "setting": "in CC(C)=O", "result": 482.16, "unit": "nm"}, {"measurement": "emission maximum", "setting": "in CC(C)CO", "result": 502.26, "unit": "nm"}, {"measurement": "emission maximum", "setting": "in CC(C)O", "result": 496.03, "unit": "nm"}, {"measurement": "emission maximum", "setting": "in CCCO", "result": 498.26, "unit": "nm"}, {"measurement": "emission maximum", "setting": "in CCO", "result": 502.77, "unit": "nm"}, {"measurement": "emission maximum", "setting": "in CCOC(C)=O", "result": 467.73, "unit": "nm"}, {"measurement": "emission maximum", "setting": "in CCOCC", "result": 444.84, "unit": "nm"}, {"measurement": "emission maximum", "setting": "in CO", "result": 503.52, "unit": "nm"}]}, {"smiles": "Cc1ccc(C2CC(c3ccc(O)cc3)=NN2c2ccc(S(N)(=O)=O)cc2)cc1", "note": "(stereo not given)", "values": [{"measurement": "emission maximum", "setting": "in C1CCOC1", "result": 417, "unit": "nm"}, {"measurement": "emission maximum", "setting": "in C1COCCO1", "result": 417, "unit": "nm"}, {"measurement": "emission maximum", "setting": "in CC#N", "result": 417, "unit": "nm"}, {"measurement": "emission maximum", "setting": "in CC(C)O", "result": 423, "unit": "nm"}, {"measurement": "emission maximum", "setting": "in CCO", "result": 428, "unit": "nm"}, {"measurement": "emission maximum", "setting": "in CCOC(C)=O", "result": 415, "unit": "nm"}, {"measurement": "emission maximum", "setting": "in CN(C)C=O", "result": 422, "unit": "nm"}, {"measurement": "emission maximum", "setting": "in CO", "result": 432, "unit": "nm"}, {"measurement": "emission maximum", "setting": "in CS(C)=O", "result": 424, "unit": "nm"}, {"measurement": "emission maximum", "setting": "in O", "result": 449, "unit": "nm"}]}, {"smiles": "CC1(C)c2ccccc2N(c2ccc(C(=C(C#N)C#N)c3ccc(N4c5ccccc5C(C)(C)c5ccccc54)cc3)cc2)c2ccccc21", "values": [{"measurement": "emission maximum", "setting": "in Cc1ccccc1", "result": 649, "unit": "nm"}]}, {"smiles": "COc1c2ccccc2c(OC)c2c1c1ccc(F)cc1n2C", "values": [{"measurement": "emission maximum", "setting": "in C1CCCCC1", "result": 404, "unit": "nm"}, {"measurement": "emission maximum", "setting": "in CC#N", "result": 413, "unit": "nm"}, {"measurement": "emission maximum", "setting": "in CO", "result": 410, "unit": "nm"}, {"measurement": "emission maximum", "setting": "in ClCCl", "result": 411, "unit": "nm"}]}, {"smiles": "O=P(c1ccccc1)(c1ccccc1)n1c2ccccc2c2cc(-n3c4ccccc4c4cc(-n5c6ccccc6c6cc(-n7c8ccccc8c8ccccc87)ccc65)ccc43)ccc21", "values": [{"measurement": "emission maximum", "setting": "in C1CCOC1", "result": 378, "unit": "nm"}, {"measurement": "emission maximum", "setting": "in CC(C)=O", "result": 382, "unit": "nm"}, {"measurement": "emission maximum", "setting": "in Cc1ccccc1", "result": 376, "unit": "nm"}, {"measurement": "emission maximum", "setting": "in ClCCl", "result": 383, "unit": "nm"}]}, {"smiles": "CCCCN(CCCC)c1ccc(C#Cc2cc(C#Cc3ccc([N+](=O)[O-])cc3)c(C#Cc3ccc([N+](=O)[O-])cc3)cc2C#Cc2ccc(N(CCCC)CCCC)cc2)cc1", "values": [{"measurement": "emission maximum", "setting": "in ClCCl", "result": 563, "unit": "nm"}]}, {"smiles": "Cc1ccc2c(c1)C(C)(C)c1cc(C)ccc1N2c1ccc2c(c1)C(C)(C)c1cc(N3c4ccc(C)cc4C(C)(C)c4cc(C)ccc43)ccc1S2(=O)=O", "values": [{"measurement": "emission maximum", "setting": "in Cc1ccccc1", "result": 470.07, "unit": "nm"}, {"measurement": "emission maximum", "setting": "in ClCCl", "result": 538, "unit": "nm"}]}, {"smiles": "Cc1ccc2c3ccc(C)cc3c3cc4c(C)cc(=O)oc4cc3c2c1", "values": [{"measurement": "emission maximum", "setting": "in ClC(Cl)Cl", "result": 422, "unit": "nm"}]}, {"smiles": "COc1ccc(N(c2ccc(OC)cc2)c2ccc(-c3ccc(-c4ccc(-c5ccc(-c6ccc(N(c7ccc(OC)cc7)c7ccc(OC)cc7)cc6)s5)c5nsnc45)s3)cc2)cc1", "values": [{"measurement": "emission maximum", "setting": "in ClC(Cl)Cl", "result": 710, "unit": "nm"}]}, {"smiles": "COc1ccc(C2=CC(c3ccc4cc(N(C)C)ccc4c3)=[O+][B-](F)(F)O2)cc1", "values": [{"measurement": "emission maximum", "setting": "in C1CCOC1", "result": 618, "unit": "nm"}, {"measurement": "emission maximum", "setting": "in CC#N", "result": 681, "unit": "nm"}, {"measurement": "emission maximum", "setting": "in CC(C)=O", "result": 660, "unit": "nm"}, {"measurement": "emission maximum", "setting": "in CS(C)=O", "result": 698, "unit": "nm"}, {"measurement": "emission maximum", "setting": "in Cc1ccccc1", "result": 555, "unit": "nm"}, {"measurement": "emission maximum", "setting": "in ClC(Cl)Cl", "result": 596, "unit": "nm"}, {"measurement": "emission maximum", "setting": "in ClCCl", "result": 631, "unit": "nm"}]}, {"smiles": "O=Cc1ccc(-c2ccc(C3=CCCCC3)s2)s1", "values": [{"measurement": "emission maximum", "setting": "in C1CCOC1", "result": 467, "unit": "nm"}, {"measurement": "emission maximum", "setting": "in CC#N", "result": 485, "unit": "nm"}, {"measurement": "emission maximum", "setting": "in CCCCCC", "result": 444, "unit": "nm"}, {"measurement": "emission maximum", "setting": "in CCO", "result": 498, "unit": "nm"}, {"measurement": "emission maximum", "setting": "in OCCOCCO", "result": 508, "unit": "nm"}, {"measurement": "emission maximum", "setting": "in c1ccncc1", "result": 483, "unit": "nm"}]}, {"smiles": "CCCCC(CC)CN1C(=O)c2cc(Oc3ccc(C(C)(C)C)cc3)c3c4c(Oc5ccc(OC)cc5)cc5c6c(cc(Oc7ccc(OC)cc7)c(c7c(Oc8ccc(C(C)(C)C)cc8)cc(c2c37)C1=O)c64)C(=O)N(c1c(C(C)C)cccc1C(C)C)C5=O", "note": "(stereo not given)", "values": [{"measurement": "emission maximum", "setting": "in Cc1ccccc1", "result": 608, "unit": "nm"}]}, {"smiles": "O=Cc1ccc(-c2ccc(O)c(-c3nc4ccccc4s3)c2)s1", "values": [{"measurement": "emission maximum", "setting": "in CCO", "result": 558, "unit": "nm"}, {"measurement": "emission maximum", "setting": "in ClCCl", "result": 553, "unit": "nm"}, {"measurement": "emission maximum", "setting": "in O", "result": 574, "unit": "nm"}]}, {"smiles": "CN(C)c1ccc(C2=Cc3c4ccccc4c4ccccc4[n+]3[B-](F)(F)O2)cc1", "values": [{"measurement": "emission maximum", "setting": "in C1CCOC1", "result": 539, "unit": "nm"}, {"measurement": "emission maximum", "setting": "in C1COCCO1", "result": 518, "unit": "nm"}, {"measurement": "emission maximum", "setting": "in CC1CCCCC1", "result": 485, "unit": "nm"}, {"measurement": "emission maximum", "setting": "in CC#N", "result": 569, "unit": "nm"}, {"measurement": "emission maximum", "setting": "in CCOC(C)=O", "result": 536, "unit": "nm"}, {"measurement": "emission maximum", "setting": "in CCOCC", "result": 513, "unit": "nm"}, {"measurement": "emission maximum", "setting": "in CN(C)C=O", "result": 571, "unit": "nm"}, {"measurement": "emission maximum", "setting": "in CO", "result": 559, "unit": "nm"}, {"measurement": "emission maximum", "setting": "in COC(C)=O", "result": 559, "unit": "nm"}, {"measurement": "emission maximum", "setting": "in ClC(Cl)Cl", "result": 521, "unit": "nm"}]}, {"smiles": "C(=C1c2ccccc2CCc2ccccc21)c1ccc(-c2ccc(C=C3c4ccccc4CCc4ccccc43)cc2)cc1", "values": [{"measurement": "emission maximum", "setting": "in C1CCOC1", "result": 394, "unit": "nm"}]}, {"smiles": "COc1cccc(-c2nc(-c3ccccc3)c(-c3ccccc3)[nH]2)c1", "values": [{"measurement": "emission maximum", "setting": "in CO", "result": 379, "unit": "nm"}]}, {"smiles": "CCCCCCOc1cc(N(CC)CC)ccc1/C=C/C(=C(C#N)C#N)c1ccc2c(c1)c1ccccc1n2CC", "values": [{"measurement": "emission maximum", "setting": "in ClCCl", "result": 583, "unit": "nm"}]}, {"smiles": "CC(C)(C)c1ccc(C2=c3c(c4ccc(C(C)(C)C)cc4c4cc(C(C)(C)C)ccc34)=[N+]3C2=C(c2ccccc2)c2c(-c4ccc(C(C)(C)C)cc4)c4c5ccc(C(C)(C)C)cc5c5cc(C(C)(C)C)ccc5c4n2[B-]3(F)F)cc1", "values": [{"measurement": "emission maximum", "setting": "in C1CCCCC1", "result": 711, "unit": "nm"}, {"measurement": "emission maximum", "setting": "in C1CCOC1", "result": 712, "unit": "nm"}, {"measurement": "emission maximum", "setting": "in CC#N", "result": 706, "unit": "nm"}, {"measurement": "emission maximum", "setting": "in Cc1ccccc1", "result": 714, "unit": "nm"}, {"measurement": "emission maximum", "setting": "in ClCCl", "result": 712, "unit": "nm"}]}, {"smiles": "COC(=O)CNC(=O)c1nc2c(N(C)C)nc(N(C)C)nc2n1Cc1ccccc1", "values": [{"measurement": "emission maximum", "setting": "in C1COCCO1", "result": 397, "unit": "nm"}, {"measurement": "emission maximum", "setting": "in CC#N", "result": 409, "unit": "nm"}, {"measurement": "emission maximum", "setting": "in CO", "result": 429, "unit": "nm"}, {"measurement": "emission maximum", "setting": "in ClCCl", "result": 407, "unit": "nm"}]}, {"smiles": "O=C1NC(c2ccccc2)=N/C1=C\\c1ccccc1", "values": [{"measurement": "emission maximum", "setting": "in C1COCCO1", "result": 444, "unit": "nm"}]}, {"smiles": "CCCCn1c2ccc(-c3ccc(OC)cc3)cc2c2ccc3c4cc(-c5ccc(OC)cc5)ccc4n(CCCC)c3c21", "values": [{"measurement": "emission maximum", "setting": "in ClC(Cl)Cl", "result": 415, "unit": "nm"}]}, {"smiles": "COc1ccc(-c2csc(/C(C#N)=C\\Nc3ccc(C#N)cc3)n2)cc1", "values": [{"measurement": "emission maximum", "setting": "in CC#N", "result": 451, "unit": "nm"}, {"measurement": "emission maximum", "setting": "in CCO", "result": 444, "unit": "nm"}, {"measurement": "emission maximum", "setting": "in CN(C)C=O", "result": 453, "unit": "nm"}, {"measurement": "emission maximum", "setting": "in Cc1ccccc1", "result": 441, "unit": "nm"}, {"measurement": "emission maximum", "setting": "in ClCCl", "result": 447, "unit": "nm"}]}, {"smiles": "CCOC(=O)c1c(C(=O)OC)c(-c2cc3cc(OC)ccc3oc2=O)nn1-c1ccccc1", "values": [{"measurement": "emission maximum", "setting": "in ClCCl", "result": 451, "unit": "nm"}]}]}
